In assay [1] the test system is human lung cancer strain NCI-H441. It is filed as cell-based. The method in brief:
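Readout: […] after the ATP-based reagent. Compound: serial dilutions in dimethyl sulfoxide.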

For assay [2], the target named is GDP-bound NRAS wild-type protein (Homo sapiens, UniProt P01111). The assay is described as follows: Binding to NRAS by surface plasmon resonance (SPR), KD and KD ratio to KRAS. The method in brief:
(§1)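 GDP-loaded biotinylated Avi-tag RAS proteins (E. coli-expressed) captured on a Biotin CAPture chip at ~100–300 RU; single-cycle kinetics at 30°C, 100 µL/min, 75 s injections of rising compound concentrations. HBS pH 7.4 running buffer with 1 mM DTT, 10 mM MgCl2, 10 µM GDP, 4% DMSO. KD from 1:1 binding fit.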
On the technique in general: SPR reads the build-up and loss of mass on a sensor chip optically.

The target in assay [3] is HRAS wild-type protein (Homo sapiens, UniProt P01112). The assay is described as follows: Binding to HRAS by surface plasmon resonance (SPR), KD and KD ratio to KRAS. The method in brief:
as §1

Where [4] appears, read: ratio of the KD value with respect to GDP-bound NRAS wild-type protein to the KD value with respect to KRAS.
[5] abbreviates: ratio of the KD value with respect to HRAS wild-type protein to the KD value with respect to KRAS.
Where [6] appears, read: ratio of KD for GDP-bound NRAS wild-type protein to KD for KRAS.
Setting [7] is: ratio of KD for HRAS wild-type protein to KD for KRAS.

Each structure is given as a SMILES string. Where a SMILES comes first, the peptide text is derived from it. Bridges are numbered along the chain shown (N, C = ends). [ ]: non-standard residue; d: D form. The star is where a group is joined. hPhe(3-Cl-4-CF3) = N[C@@H](CCc1ccc(C(F)(F)F)c(Cl)c1)C(=O)O; NPrPhe(4-CF3) = CCCN[C@@H](Cc1ccc(C(F)(F)F)cc1)C(=O)O; NMeGly(cPent) = CN[C@H](C(=O)O)C1CCCC1; Hyp = O=C(O)[C@@H]1C[C@@H](O)CN1; NMeD = CN[C@@H](CC(=O)O)C(=O)O; NMeL = CN[C@@H](CC(C)C)C(=O)O; Morpholide = C1CN(*)CCO1; Ac5c = NC1(C(=O)O)CCCC1; Aze = O=C(O)[C@@H]1CCN1; Sar = CNCC(=O)O

Sequence of HRAS wild-type protein (P01112 whole entry): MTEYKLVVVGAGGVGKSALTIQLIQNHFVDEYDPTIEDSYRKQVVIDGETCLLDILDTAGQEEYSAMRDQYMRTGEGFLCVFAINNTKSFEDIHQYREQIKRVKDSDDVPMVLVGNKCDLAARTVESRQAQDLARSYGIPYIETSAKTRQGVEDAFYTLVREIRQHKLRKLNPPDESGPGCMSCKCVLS
Sequence of GDP-bound NRAS wild-type protein (P01111 whole entry): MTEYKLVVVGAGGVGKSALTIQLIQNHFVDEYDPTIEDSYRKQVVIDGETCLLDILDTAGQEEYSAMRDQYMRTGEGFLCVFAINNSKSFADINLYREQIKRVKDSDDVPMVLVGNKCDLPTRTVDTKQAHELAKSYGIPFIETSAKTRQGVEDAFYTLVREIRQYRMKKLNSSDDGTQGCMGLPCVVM

`CCCN1C(=O)[C@@H]2CCN2C(=O)CN(C)C(=O)[C@H]([C@@H](C)CC)NC(=O)[C@H](CC(C)C)N(C)C(=O)C[C@@H](C(=O)N2CCOCC2)N(C)C(=O)[C@H](C2CCCC2)N(C)C(=O)C2(CCCC2)NC(=O)[C@@H]2C[C@@H](OCC)CN2C(=O)[C@H](CCc2ccc(C(F)(F)F)c(Cl)c2)NC(=O)CN(C)C(=O)[C@@H]1Cc1ccc(C(F)(F)F)cc1` [PP0410] ([NMeL]I[Sar][Aze][NPrPhe(4-CF3)][Sar][hPhe(3-Cl-4-CF3)][Hyp](Et)[Ac5c][NMeGly(cPent)][NMeD]-Morpholide; lactam N-11) yielded an IC50 in assay [1] of 1.4 nM. The “NRAS /KRAS” value in assay [2] (setting [4]) was “C (A compound having a KD ratio of 0.1 or more and less than 3 is denoted as C)”. Further, the “HRAS /KRAS” value in assay [3] (setting [5]) is “B (a compound having 3 or more and less than 10 is denoted as B)”.
`CC[C@H](C)[C@@H]1NC(=O)[C@H](CC(C)C)N(C)C(=O)C[C@@H](C(=O)N2CCOCC2)N(C)C(=O)[C@H](C2CCCC2)N(C)C(=O)C2(CCC2)NC(=O)[C@@H]2C[C@@H](OCCC(F)(F)F)CN2C(=O)[C@H](CCc2cc(F)c(C(F)(F)F)c(F)c2)NC(=O)CN(C)C(=O)[C@H](Cc2ccc(C(F)(F)F)cc2)N2CCCC[C@@H](C2=O)N(C)C(=O)CN(C)C1=O` [PP0998] displayed an IC50 in assay [1] of 19.7 nM. In addition, the “NRAS /KRAS” value in assay [2] (setting [6]) is “B (a compound having 3 or more and less than 10 is denoted as B)”. In assay [3] (setting [7]), the “HRAS /KRAS” value was “B (a compound having 3 or more and less than 10 is denoted as B)”.
In the case of `C#CC[C@H]1C(=O)N[C@@H]([C@@H](C)CC)C(=O)N(C)CC(=O)N(C)[C@H]2C/C=C\CCN(C2=O)[C@@H](Cc2ccc(C)cc2)C(=O)N(C)CC(=O)N[C@@H](CCc2ccc(C(F)(F)F)c(Cl)c2)C(=O)N2CC3(CC3)C[C@H]2C(=O)NC2(CC(C)(C)C2)C(=O)N(C)[C@@H](C2CCCC2)C(=O)N(C)[C@H](C(=O)N(C)C)CC(=O)N1C` [PP2982], the IC50 in assay [1] is 11.9 nM. For the same compound, the “NRAS /KRAS” value in assay [2] (setting [6]) is “A (a compound having 10 or more and less than 20 is denoted as A)”. The “HRAS /KRAS” value in assay [3] (setting [7]) was “A (a compound having 10 or more and less than 20 is denoted as A)”.
Consider `CC[C@H](C)[C@@H]1NC(=O)[C@H](CC(C)C)N(C)C(=O)C[C@@H](C(=O)N2CCOCC2)N(C)C(=O)[C@H](C2CCCC2)N(C)C(=O)C2(CCCC2)NC(=O)[C@@H]2CCCN2C(=O)[C@H](CCc2cc(F)c(C(F)(F)F)c(F)c2)NC(=O)CN(C)C(=O)[C@H](Cc2ccc(C(F)(F)F)cc2)N2CCCC[C@@H](C2=O)N(C)C(=O)CN(CC)C1=O` [PP0545], for which the IC50 in assay [1] was found to be 14 nM. Also, the “NRAS /KRAS” value in assay [2] (setting [4]) is “B (a compound having 3 or more and less than 10 is denoted as B)”. Moreover, in assay [3] (setting [5]), the “HRAS /KRAS” value is “B (a compound having 3 or more and less than 10 is denoted as B)”.
`CCCO[C@@H]1C[C@H]2C(=O)NC3(CC(C)(C)C3)C(=O)N(C)[C@@H](C3CCCC3)C(=O)N(C)[C@H](C(=O)N(C)CC)CC(=O)N(C)[C@H]3CCCc4ccc(cc4)C[C@@H](C(=O)N(C)CC(=O)N[C@@H](CCc4ccc(C(F)(F)F)c(OC)c4)C(=O)N2C1)N1CC/C=C\C[C@@H](C1=O)N(C)C(=O)CN(C1CC1)C(=O)[C@H]([C@@H](C)CC)NC3=O` [PP3088] registered an IC50 in assay [1] of 15.1 nM. The “NRAS /KRAS” value in assay [2] (setting [6]) was “B (a compound having 3 or more and less than 10 is denoted as B)”. Besides, the “HRAS /KRAS” value in assay [3] (setting [7]) was “B (a compound having 3 or more and less than 10 is denoted as B)”.
`CCO[C@@H]1C[C@H]2C(=O)NC3(CC(C)(C)C3)C(=O)N(C)[C@@H](C(CC)CC)C(=O)N(C)[C@H](C(=O)N(C)C)CC(=O)N(C)[C@@H](CC3CC3)C(=O)N[C@@H]([C@@H](C)CC)C(=O)N(C)CC(=O)N(C)[C@H]3C/C=C\CCN(C3=O)[C@@H](Cc3ccc(C)cc3)C(=O)N(C)CC(=O)N[C@@H](CCc3cc(F)c(C(F)(F)F)c(F)c3)C(=O)N2C1` [PP2137]: the IC50 in assay [1] is 16.8 nM. Further, the “NRAS /KRAS” value in assay [2] (setting [4]) is “A (a compound having 10 or more and less than 20 is denoted as A)”. Besides, in assay [3] (setting [5]), the “HRAS /KRAS” value was “A (a compound having 10 or more and less than 20 is denoted as A)”.

By IC50 is commonly meant the concentration needed to halve the response being measured. A low value points to inhibition by little substance.

Source of the values: EP4603105A1, “PHARMACEUTICAL COMPOSITION CONTAINING CYCLIC COMPOUND HAVING SELECTIVE KRAS INHIBITORY EFFECT AGAINST HRAS AND NRAS” (CHUGAI SEIYAKU KABUSHIKI KAISHA, priority 2022, dated 2024).
